The values that follow come from patent US8324273B2 (XenoPort, Inc., priority 2006, dated 2012).

What is called melting point is the temperature, or range, at which the solid turns liquid.

Series [1] in a line: Intracolonic bioavailability of levodopa prodrugs in monkeys. Type of series: in vivo, male Cynomologous monkeys. As to conditions: male, monkey, whole blood, intravenous, 10 mg; read-out: mean AUCinf. As to the method: Male Cynomologous monkeys weighing about 3.0 kg were used in the studies. Monkeys are fasted overnight prior to the study until 4 hours after dosing. Water was provided ad libitum.
Carbidopa was prepared as a solution (0.72 mg/mL) in sodium acetate buffer pH 5.16.
Blood samples were collected at pre-dose and at 0.17, 0.25, 0.5, 0.75, 1, 2, 4, 6, 8, 12, and 24 hours post-dose. About 0.3 mL of blood was collected in pre-chilled K2EDTA tubes containing 100 μL of 10% sodium metabisulfite. The contents were gently vortexed at low speed to ensure that the sampled blood came into contact with sodium metabisulfite while maintaining ice on the samples at all times. About 0.1 mL of the anticoagulated blood was added to each of 2 pre-chilled cryovials that each contained about 0.3 mL of quenching media (89.3% v/v methanol and 10.7% v/v 4N perchloric acid) within 5 minutes of bleed. Within 30 minutes of blood collection, the samples were centrifuged at about 3,000 rpm, 4° C., for 10 min. The samples were then stored at −70° C.
Blood samples were analyzed as described in Example 30.

For series [2] the following is noted: following oral administration of NB-355; cited from earlier work.
Series [3] can be described thus: Hygroscopicity of crystalline hydrogen fumarate (21) crystallized from various solvents. In kind it is physicochemical. As to the method:
(1R)-2-Acetyloxy-1-methylethyl (2S)-2-amino-3-[3,4-bis(ethoxycarbonyloxy)phenyl]propanoate hydrogen fumarate (21) was crystallized using the solvents listed in Table 1 on a 100 mg scale.

With `N[C@@H](Cc1ccc(O)c(O)c1)C(=O)O` [levodopa, L-3,4-dihydroxyphenylalanine], the AUC(0-inf) in series [1] came out at 3690 ng·h/mL.

As to `CC(C)(C)C(=O)Oc1ccc(C[C@H](N)C(=O)O)cc1O` [NB-355], in series [2], the “duration of circulating levodopa” value is listed as “prolonged” and the “plasma concentrations of levodopa” value is on record as “low”.

In turn, `CCOC(=O)Oc1ccc(C[C@H](N)C(=O)O[C@H](C)COC(C)=O)cc1OC(=O)OCC.O=C(O)/C=C/C(=O)O` [Compound 21, (1R)-2-Acetyloxy-1-methylethyl (2S)-2-Amino-3-[3,4-bis(ethoxycarbonyloxy)phenyl]propanoate Hydrogen Fumarate] returned a melting point of 78.1 to 80.7 °C. Moreover, the Hygroscopicity entry in series [3] (crystallized from acetonitrile-methyl tert-butyl ether) is reported as “None”. The Hygroscopicity entry in series [3] (crystallized from ethyl acetate) is on record as “None”. Further, the Hygroscopicity entry in series [3] (crystallized from ethyl acetate-diisopropyl ether) is “None”. Further, in series [3] (crystallized from ethyl acetate-methyl tert-butyl ether), the Hygroscopicity entry is recorded as “None”.
